Tests used:
CAPAN-1 = experiment: Potentiation of anticancer activity against human CAPAN-1 cells harboring BRCA mutant xenografted in SCID/nude mouse assessed as tumor growth inhibition at 3 mg/kg, po bid for 12 days co-administered with TMZ measured up to 9 weeks post-drug administration; format: functional; settings: CAPAN-1, po, 288 h, time 12 day
[1] = Toxicity in SCID/nude mouse xenografted with human MDA-MB-436 cells harboring BRCA mutant assessed as body weight loss at 50 mg/kg, po bid; format: organism-based; settings: in vivo
MDA-MB-436 [2] = experiment: Potentiation of anticancer activity against human MDA-MB-436 cells harboring BRCA mutant xenografted in SCID/nude mouse assessed as tumor growth inhibition at 3 mg/kg, po bid for 12 days co-administered with TMZ measured up to 9 weeks post-drug administration; format: functional; settings: MDA-MB-436, po, 288 h, time 12 day
MDA-MB-436 [3] = experiment: Anticancer activity against human MDA-MB-436 cells harboring BRCA mutant xenografted in SCID/nude mouse assessed as tumor growth regression at 50 mg/kg, po bid and measured up to 5 weeks post-drug administration; format: functional; settings: MDA-MB-436, po, 840 h, time weeks <=5
SK-ES1 = experiment: Potentiation of anticancer activity against human SK-ES-1 cells harboring EWSF1 translocation xenografted in SCID/nude mouse assessed as tumor growth inhibition at 3 mg/kg, po bid for 12 days co-administered with TMZ measured up to 9 weeks post drug administration; format: functional; settings: 288 h, time 12 day
[4] = target: T1, Poly [ADP-ribose] polymerase 1 (Homo sapiens, UniProt P09874); experiment: Inhibition of N-terminal GST-tagged human full length PARP1 (2 to 1041 residues) expressed in baculovirus infected Sf9 cells using histone mixture (H2A and H2B) and biotinylated NAD+ as substrate in presence of activated DNA incubated for 60 mins by chemiluminescence assay
MDA-MB-436 [5] = experiment: Cytotoxicity against human MDA-MB-436 cells assessed as inhibition of cell viability incubated for 14 days with three intermittent intervals by CellTiterGlo luminescence assay; settings: MDA-MB-436, 336 h
[6] = target: T1, Poly [ADP-ribose] polymerase 1; experiment: Inhibition of PARP1 in human MDA-MB-436 cells assessed as inhibition of PARylation at 10 nM incubated for 1 hr by chemiluminescence assay; format: cell-based
MDA-MB-436 [7] = experiment: Cytotoxicity against human MDA-MB-436 cells assessed as inhibition of cell viability incubated for 4 days by CellTiterGlo luminescence assay; settings: MDA-MB-436, 96 h
[8] = target: Poly [ADP-ribose] polymerase 2 (Homo sapiens, UniProt Q9UGN5); experiment: Inhibition of N-terminal GST-tagged human PARP2 (2 to 583 residues) expressed in baculovirus infected Sf9 cells using histone mixture (H2A and H2B) and biotinylated NAD+ as substrate in presence of activated DNA incubated for 60 mins by chemiluminescence assay
[9] = Tmax in BALB/c mouse at 10 mg/kg, po measured up to 24 hrs by LC-MS/MS analysis; format: ADME, organism-based; settings: in vivo
[10] = Cmax in BALB/c mouse at 10 mg/kg, po measured up to 24 hrs by LC-MS/MS analysis; format: ADME, organism-based; set-up: route oral, dose 10 mg/kg, time <=24; settings: in vivo
[11] = Clearance in BALB/c mouse at 1 mg/kg, iv measured up to 24 hrs by LC-MS/MS analysis; format: ADME, organism-based; settings: in vivo
MCF7 = experiment: Cytotoxicity against human MCF7 cells harboring wild type BRCA at 1000 nM relative to control; format: cell-based; settings: mcf7, 1 µM
[12] = Cmax in BALB/c mouse at 1 mg/kg, iv measured up to 24 hrs by LC-MS/MS analysis; format: ADME, organism-based; set-up: route intravenous, dose 1 mg/kg, time <=24; settings: in vivo
[13] = Oral bioavailability in BALB/c mouse at 10 mg/kg measured up to 24 hrs by LC-MS/MS analysis; format: ADME, organism-based; settings: in vivo
[14] = Tmax in BALB/c mouse at 1 mg/kg, iv measured up to 24 hrs by LC-MS/MS analysis; format: ADME, organism-based; settings: in vivo
[15] = Volume of distribution at steady state in BALB/c mouse at 1 mg/kg, iv measured up to 24 hrs by LC-MS/MS analysis; format: ADME, organism-based; settings: in vivo, read-out: Vdss
MDA-MB-436 [16] = experiment: Anticancer activity against human MDA-MB-436 cells harboring BRCA mutant xenografted in SCID/nude mouse assessed as tumor growth regression at 1.5 mg/kg, po bid and measured up to 5 weeks post-drug administration; format: functional; settings: MDA-MB-436, po, 840 h, time weeks <=5
[17] = Half life in BALB/c mouse at 1 mg/kg, iv measured up to 24 hrs by LC-MS/MS analysis; format: ADME, organism-based; settings: in vivo
[18] = AUClast in BALB/c mouse at 10 mg/kg, po measured up to 24 hrs by LC-MS/MS analysis; format: ADME, organism-based; set-up: route oral, dose 10 mg/kg, time <=24; settings: in vivo
HEK293 [19] = experiment: Cytotoxicity against HEK293 cells at 1000 nM relative to control; format: cell-based; settings: human, hek293, 1 µM
[20] = AUClast in BALB/c mouse at 1 mg/kg, iv measured up to 24 hrs by LC-MS/MS analysis; format: ADME, organism-based; set-up: route intravenous, dose 1 mg/kg, time <=24; settings: in vivo
[21] = Toxicity in SCID/nude mouse xenografted with human MDA-MB-436 cells harboring BRCA mutant assessed as body weight loss at 0.15 mg/kg, po bid; format: organism-based; settings: in vivo
[22] = Toxicity against SCID/nude mouse xenografted with human CAPAN-1 cells harboring BRCA mutant assessed as body weight loss at 0.15 mg/kg, po bid for 12 days co-administered with lower dose of TMZ; format: organism-based; settings: in vivo, 288 h, time 12 day
MDA-MB-436 [23] = experiment: Anticancer activity against human MDA-MB-436 cells harboring BRCA mutant xenografted in SCID/nude mouse assessed as tumor growth regression at 0.15 mg/kg, po bid and measured up to 5 weeks post-drug administration; format: functional; settings: MDA-MB-436, po, 840 h, time weeks <=5
[24] = Toxicity against SCID/nude mouse xenografted with human SK-ES-1 cells harboring EWSF1 translocation assessed as body weight loss at 0.15 mg/kg, po bid for 12 days co-administered with lower dose of TMZ; format: organism-based; settings: in vivo, 288 h, time 12 day
[25] = Toxicity against SCID/nude mouse xenografted with human MDA-MB-436 cells harboring BRCA mutant assessed as body weight loss at 0.15 mg/kg, po bid for 12 days co-administered with lower dose of TMZ; format: organism-based; settings: in vivo, 288 h, time 12 day
[26] = Toxicity against SCID/nude mouse xenografted with human MDA-MB-436 cells harboring BRCA mutant assessed as body weight loss at 0.15 mg/kg, po bid for 12 days co-administered with 35 mg/kg, po TMZ; format: organism-based; settings: in vivo, 288 h, time 12 day
[27] = Toxicity against SCID/nude mouse xenografted with human MDA-MB-436 cells harboring BRCA mutant assessed as hypothermia at 0.15 mg/kg, po bid for 12 days co-administered with 35 mg/kg, po TMZ; format: organism-based; settings: in vivo, 288 h, time 12 day
[28] = Toxicity against SCID/nude mouse xenografted with human SK-ES-1 cells harboring EWSF1 translocation assessed as hypothermia at 0.15 mg/kg, po bid for 12 days co-administered with 35 mg/kg, po TMZ; format: organism-based; settings: in vivo, 288 h, time 12 day
[29] = Toxicity against SCID/nude mouse xenografted with human CAPAN-1 cells harboring BRCA mutant assessed as hypothermia at 0.15 mg/kg, po bid for 12 days co-administered with 35 mg/kg, po TMZ; format: organism-based; settings: in vivo, 288 h, time 12 day
[30] = Toxicity against SCID/nude mouse xenografted with human SK-ES-1 cells harboring EWSF1 translocation assessed as body weight loss at 0.15 mg/kg, po bid for 12 days co-administered with 35 mg/kg, po TMZ; format: organism-based; settings: in vivo, 288 h, time 12 day
[31] = Toxicity against SCID/nude mouse xenografted with human CAPAN-1 cells harboring BRCA mutant assessed as body weight loss at 0.15 mg/kg, po bid for 12 days co-administered with 35 mg/kg, po TMZ; format: organism-based; settings: in vivo, 288 h, time 12 day
HEK293 [32] = experiment: Cytotoxicity against HEK293 cells assessed as inhibition of cell viability; format: cell-based; settings: human

T1 sequence (P09874 whole entry, the tested form may be a part): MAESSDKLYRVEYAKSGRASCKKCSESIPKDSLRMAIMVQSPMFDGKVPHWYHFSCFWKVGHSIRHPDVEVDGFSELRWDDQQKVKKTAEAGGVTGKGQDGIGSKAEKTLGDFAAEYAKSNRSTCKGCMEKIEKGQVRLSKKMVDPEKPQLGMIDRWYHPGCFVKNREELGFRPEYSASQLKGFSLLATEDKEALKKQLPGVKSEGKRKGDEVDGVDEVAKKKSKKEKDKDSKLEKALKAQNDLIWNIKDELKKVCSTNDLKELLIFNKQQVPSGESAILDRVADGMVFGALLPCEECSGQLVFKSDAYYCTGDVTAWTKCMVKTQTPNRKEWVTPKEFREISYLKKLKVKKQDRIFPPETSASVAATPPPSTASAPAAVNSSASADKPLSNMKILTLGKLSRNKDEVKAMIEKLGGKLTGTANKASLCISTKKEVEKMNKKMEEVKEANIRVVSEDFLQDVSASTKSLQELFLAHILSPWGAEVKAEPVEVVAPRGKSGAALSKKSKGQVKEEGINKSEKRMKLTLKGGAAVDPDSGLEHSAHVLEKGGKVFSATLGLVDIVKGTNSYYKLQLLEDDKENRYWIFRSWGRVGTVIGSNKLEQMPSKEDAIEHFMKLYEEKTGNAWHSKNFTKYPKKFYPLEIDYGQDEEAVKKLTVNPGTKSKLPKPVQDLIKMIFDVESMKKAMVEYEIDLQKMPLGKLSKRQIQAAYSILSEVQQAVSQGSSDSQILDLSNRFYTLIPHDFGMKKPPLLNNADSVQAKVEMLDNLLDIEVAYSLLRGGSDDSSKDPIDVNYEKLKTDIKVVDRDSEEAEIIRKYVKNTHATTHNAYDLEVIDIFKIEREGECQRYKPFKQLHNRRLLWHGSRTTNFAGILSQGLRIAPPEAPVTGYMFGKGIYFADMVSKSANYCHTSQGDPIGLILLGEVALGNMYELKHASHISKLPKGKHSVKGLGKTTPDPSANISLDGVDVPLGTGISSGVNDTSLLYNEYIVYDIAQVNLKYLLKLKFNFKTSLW
Poly [ADP-ribose] polymerase 2, sequence (Q9UGN5 whole entry, the tested form may be a part): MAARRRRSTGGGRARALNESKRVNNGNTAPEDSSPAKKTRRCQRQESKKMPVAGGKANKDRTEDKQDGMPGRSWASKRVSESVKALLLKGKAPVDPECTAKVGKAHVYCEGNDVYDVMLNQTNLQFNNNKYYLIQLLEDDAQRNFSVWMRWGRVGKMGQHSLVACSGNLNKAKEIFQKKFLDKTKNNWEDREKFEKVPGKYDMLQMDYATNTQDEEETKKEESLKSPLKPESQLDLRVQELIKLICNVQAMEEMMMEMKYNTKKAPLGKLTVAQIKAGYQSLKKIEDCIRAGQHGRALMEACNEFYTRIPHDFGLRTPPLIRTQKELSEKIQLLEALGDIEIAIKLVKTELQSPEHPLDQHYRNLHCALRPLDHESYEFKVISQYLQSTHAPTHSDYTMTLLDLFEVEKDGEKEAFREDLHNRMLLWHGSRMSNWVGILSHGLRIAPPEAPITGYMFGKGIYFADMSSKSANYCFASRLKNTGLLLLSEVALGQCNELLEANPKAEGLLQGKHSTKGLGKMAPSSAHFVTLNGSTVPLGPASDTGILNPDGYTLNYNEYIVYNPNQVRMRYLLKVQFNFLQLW

SMILES	IC50 [4] [nM]	IC50 (MDA-MB-436 [5]) [nM]	inhibition [6] [%]	IC50 (MDA-MB-436 [7]) [nM]	IC50 [8] [nM]	other results
O=C(c1cc(Cc2n[nH]c(=O)c3ccccc23)ccc1F)N1CCN(C(=O)C2CC2)CC1 [OLAPARIB]	–	–	–	–	–	inhibition in vivo at 3 mg/kg (CAPAN-1): 49%; Activity [1]: 10%; inhibition in vivo at 3 mg/kg (MDA-MB-436 [2]): 39%; inhibition in vivo at 50 mg/kg (MDA-MB-436 [3]): 40%; inhibition in vivo at 3 mg/kg (SK-ES1): 39.5%
CNCc1ccc(-c2[nH]c3cc(F)cc4c3c2CCNC4=O)cc1 [RUCAPARIB]	–	–	–	–	–	inhibition in vivo at 3 mg/kg (CAPAN-1): 46%; inhibition in vivo at 3 mg/kg (MDA-MB-436 [2]): 95%; inhibition in vivo at 3 mg/kg (SK-ES1): 20.6%
N#Cc1ccc(N2CCN([C@H]3C=C(c4cc5c(N)cccc5c(=O)[nH]4)CC3)CC2)cc1	0.6	0.005	92	0.109	1.5	–
CNC(=O)c1ccc(N2CCN(CCCc3cc4c(N)cc(F)cc4c(=O)[nH]3)CC2)cc1	0.8	0.01	62	0.35	10.8	–
N#Cc1ccc(N2CCN(CCCc3cc4c(N)cccc4c(=O)[nH]3)CC2)cc1	0.6	0.001	93	0.02	7.2	–
NC(=O)c1ccc(N2CCN(CCCc3cc4c(N)cc(F)cc4c(=O)[nH]3)CC2)cc1	0.4	0.33	54	1.48	4.6	–
N#Cc1ccc(N2CCN([C@@H]3C=C(c4cc5c(N)cccc5c(=O)[nH]4)CC3)CC2)cc1	2.5	–	83	–	167	–
N#Cc1ccc(N2CCN([C@H]3C=C(c4cc5ncccc5c(=O)[nH]4)CC3)CC2)nc1	1	0.05	92	1.1	16.6	–
Nc1cc(F)cc2c(=O)[nH]c(CCCN3CCN(c4ccc(F)cc4)CC3)cc12	0.9	0.05	68	1.13	9.5	–
N#Cc1ccc(N2CCN([C@@H]3C=C(c4cc5c(N)cc(F)cc5c(=O)[nH]4)CC3)CC2)c(F)c1	5.6	–	–	–	58	–
N#Cc1ccc(N2CCN([C@H]3C=C(c4cc5c(N)cc(F)cc5c(=O)[nH]4)CC3)CC2)cc1	1	0.0016	92	0.073	1.3	Tmax [9]: 15 min; Cmax [10]: 19 µM; clearance [11]: 2.2 mL/min/kg; Activity (MCF7): 36%; Cmax [12]: 11 µM; bioavailability [13]: 59%; Tmax [14]: 4.8 min; Vd [15]: 0.4 L/kg; inhibition in vivo at 1.5 mg/kg (MDA-MB-436 [16]): 94%; half-life [17]: 132 min; AUC(0-t) at 24 h [18]: 106 µM·h; Activity (HEK293 [19]): 65%; AUC(0-t) at 24 h [20]: 18 µM·h
N#Cc1ccc(N2CCN([C@@H]3C=C(c4cc5c(N)cc(F)cc5c(=O)[nH]4)CC3)CC2)cc1	5	–	40	–	200	–
Cn1ncnc1[C@H]1c2n[nH]c(=O)c3cc(F)cc(c23)N[C@@H]1c1ccc(F)cc1 [TALAZOPARIB]	–	–	91	–	–	Activity (MCF7): 98%; Activity [21]: 10%; Activity [22]: Non-Toxic; inhibition in vivo at 0.15 mg/kg (MDA-MB-436 [23]): 65%; Activity [24]: Non-Toxic; Activity [25]: Non-Toxic; Activity [26]: Toxic; Activity (HEK293 [19]): 95%; Activity [27]: Toxic; Activity [28]: Toxic; Activity [29]: Toxic; Activity [30]: Toxic; Activity [31]: Toxic
N#Cc1ccc(N2CCN([C@H]3C=C(c4cc5ncc(F)cc5c(=O)[nH]4)CC3)CC2)cc1	0.9	0.007	91	0.17	26.9	–
N#Cc1ccc(N2CCN(CCCc3cc4c(N)cc(F)cc4c(=O)[nH]3)CC2)cc1	0.6	0.0006	86	0.015	3.9	Tmax [9]: 15 min; Cmax [10]: 1.5 µM; clearance [11]: 17 mL/min/kg; Activity (MCF7): 23%; Cmax [12]: 3.7 µM; bioavailability [13]: 8%; Tmax [14]: 4.8 min; Vd [15]: 0.8 L/kg; inhibition in vivo at 1.5 mg/kg (MDA-MB-436 [16]): 29%; half-life [17]: 66 min; AUC(0-t) at 24 h [18]: 1.9 µM·h; Activity (HEK293 [32]): Non-Toxic; AUC(0-t) at 24 h [20]: 2.4 µM·h
N#Cc1ccc(N2CCN([C@H]3C=C(c4cc5c(N)cc(F)cc5c(=O)[nH]4)CC3)CC2)c(F)c1	0.9	0.05	89	0.06	2.6	–

From ChEMBL document CHEMBL4673259, “Discovery of isoquinolinone and naphthyridinone-based inhibitors of poly(ADP-ribose) polymerase-1 (PARP1) as anticancer agents: Structure activity relationship and preclinical characterization” (Bioorg Med Chem, 2020)
